According to article PMC3476947 (Journal of medicinal chemistry, 2012):

Key:
[1] = tested on: MBHA DNA substrate (25 base-pair); assay: Fluorescent intercalator displacement; assay type: binding; details: 1.5 μM compound, FID counterscreen
[2] = target: T1, HCV NS3 helicase (NS3h_1b(con1)) (Hepatitis C virus genotype 1b, UniProt Q9WMX2); assay: MBHA with RNA substrate; assay type: biochemical; details: data not shown
[3] = target: T1, HCV NS3 helicase (NS3h_1b(con1)); assay: biochemical

T1 sequence (Q9WMX2 1192-1657): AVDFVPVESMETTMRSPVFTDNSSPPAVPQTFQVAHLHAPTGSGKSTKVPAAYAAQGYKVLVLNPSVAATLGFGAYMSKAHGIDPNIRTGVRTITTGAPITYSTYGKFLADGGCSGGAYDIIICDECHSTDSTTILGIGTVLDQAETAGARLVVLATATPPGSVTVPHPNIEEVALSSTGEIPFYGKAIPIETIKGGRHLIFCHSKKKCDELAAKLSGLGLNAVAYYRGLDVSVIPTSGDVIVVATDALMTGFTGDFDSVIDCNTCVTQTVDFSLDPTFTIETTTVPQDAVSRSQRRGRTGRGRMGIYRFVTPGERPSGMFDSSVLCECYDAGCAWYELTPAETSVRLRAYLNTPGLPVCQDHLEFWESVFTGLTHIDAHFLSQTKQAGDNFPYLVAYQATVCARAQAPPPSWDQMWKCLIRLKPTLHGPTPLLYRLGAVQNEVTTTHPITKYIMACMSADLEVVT

[Cl][Cd][Cl] [CdCl2]
decrease of fluorescence of DNA-bound ethidium bromide [1]: less than 8%

CO[C@@H]1[C@H](O)C[C@@H](O[C@@H]2C[C@H](Oc3cc4cc5c(c(O)c4c(O)c3C)C(=O)[C@@H](O[C@H]3C[C@@H](O[C@H]4C[C@@H](O[C@H]6C[C@](C)(O)[C@@H](OC(C)=O)[C@H](C)O6)[C@H](O)[C@@H](C)O4)[C@H](O)[C@@H](C)O3)[C@H]([C@H](OC)C(=O)[C@@H](O)[C@@H](C)O)C5)O[C@H](C)[C@@H]2OC(C)=O)O[C@@H]1C [Chromomycin A3]
effect on HCV helicase-catalyzed RNA unwinding [2]: no effect
IC50 [3]: 0.15 ± 0.03 µM

Cc1c2ccncc2c(C)c2c1[nH]c1ccccc12 [ellipticine]
decrease of fluorescence of DNA-bound ethidium bromide [1]: less than 8%

Cc1ccc2c(c1)sc(-c1ccc(N(C)C)cc1)[n+]2C.[Cl-] [thioflavine T]
effect on HCV helicase-catalyzed RNA unwinding [2]: no effect
effect on HCV helicase-catalyzed DNA unwinding ([3]; MBHA, up to 100 μM): no effect
